Assay results from US8293756B2, “Pharmaceutical compositions comprising nilotinib hydrochloride monohydrate” (Novartis AG, priority 2006, dated 2012).
Where a name gives a salt, the structure may show the parent alone.

Key:
[1] = Solubility in aqueous media / water; type: physicochemical
Hygroscopic tendency = type: physicochemical

SMILES | water solubility ([1]; water, background statement) | solubility in aqueous media ([1]; aqueous media) | hygroscopic tendency (Hygroscopic tendency)
Cc1cn(-c2cc(NC(=O)c3ccc(C)c(Nc4nccc(-c5cccnc5)n4)c3)cc(C(F)(F)F)c2)cn1 [Nilotinib, 4-Methyl-3-[[4-(3-pyridinyl)-2-pyrimidinyl]amino]-N-[5-(4-methyl-1H-imidazol-1-yl) -3-(trifluoromethyl)phenyl] benzamide] | poorly water soluble |  | 
Cc1cn(-c2cc(NC(=O)c3ccc(C)c(Nc4nccc(-c5cccnc5)n4)c3)cc(C(F)(F)F)c2)cn1 [nilotinib hydrochloride monohydrate, 4-Methyl-N-[3-(4-methyl-1H-imidazol-1-yl) -5-(trifluromethyl)phenyl]-3-[(4-pyridine-3-ylpyrimidin-2-yl)amino]benzamide hydrochloride hydrate] |  | low solubility | slight hygroscopic tendency
